Test results as given in PubChem BioAssay (NCI).
Values joined by “and” are separate entries in the source; they are usually repeats but may differ in a detail not shown here. Identical values can stand only once.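 Following 48 hours of exposure in 96-well plates, responses at five concentrations were used to interpolate endpoints linearly. Here, GI50 denotes the concentration required for 50% inhibition of growth. Definition used: TGI = concentration required for complete inhibition of growth.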

Columns and labels:
Experiment in all cases: inhibition of tumour cell growth, NCI panel, 48 h
A549 NSCLC = system: A549 NSCLC
BT-549 breast = system: BT-549 breast
HT29 colon = system: HT29 colon
SF-295 CNS = system: SF-295 CNS
SNB-19 CNS = system: SNB-19 CNS
SNB-75 CNS = system: SNB-75 CNS
SR leukemia = system: SR leukemia
UACC-257 melanoma = system: UACC-257 melanoma
HCT-15 colon = system: HCT-15 colon
LOX IMVI melanoma = system: LOX IMVI melanoma

Structure (SMILES) | TGI (A549 NSCLC) | TGI (BT-549 breast) [µM] | TGI (HT29 colon) | TGI (SF-295 CNS) | TGI (SNB-19 CNS) | TGI (SNB-75 CNS) [µM] | TGI (SR leukemia) [µM] | TGI (UACC-257 melanoma) [µM] | GI50 (A549 NSCLC) [µM] | GI50 (BT-549 breast) [µM] | GI50 (HCT-15 colon) [µM] | TGI (HCT-15 colon) | GI50 (HT29 colon) [µM] | GI50 (LOX IMVI melanoma) [µM] | TGI (LOX IMVI melanoma) | GI50 (SF-295 CNS) [µM] | GI50 (SNB-19 CNS) [µM] | GI50 (SNB-75 CNS) [µM] | GI50 (SR leukemia) [µM] | GI50 (UACC-257 melanoma) [µM]
C[C@]12CC[C@H](O)CC1=CC[C@@H]1C2CC[C@]2(C)c3nn(-c4ccc(F)cc4)nc3CC12 (stereo partly specified) | > 100 µM | > 100 | 73 µM | > 100 µM | > 100 µM | 74.4 | > 100 | > 100 |  |  |  |  |  |  |  |  |  |  |  | 
COC(=O)COc1ccc(/C=C2\N=C(c3ccccc3)N(c3cc(C(F)(F)F)ccc3Cl)C2=O)cc1 | > 100 µM | 94.2 | > 100 µM | > 100 µM | > 100 µM | > 100 | 54.9 |  | > 100 | 28.1 | 94.6 | > 100 µM | 97.1 | 21.8 | 53.3 µM | > 100 | 83.8 | 76.6 | 19.3 | 
O=C(Nc1ccc(-n2cc(-c3ccncc3)c(-c3ccc(Cl)c(O)c3)n2)cc1)Nc1cc(C(F)(F)F)cc(C(F)(F)F)c1 | 4.3 µM | 3.22 | 3.74 µM | 3.08 µM | 9.97 µM | 3.88 |  | 5.22 | 1.93 | 1.49 | 1.9 | 4.3 µM | 1.95 | 1.63 | 3.02 µM | 1.47 | 3.01 | 1.18 |  | 2.01
C1CNCCNCCNCCN1 | > 100 µM |  | > 100 µM | > 100 µM | > 100 µM | > 100 | > 100 | > 100 |  |  |  |  |  |  | > 100 µM |  |  |  |  | 
Cc1cc(O)c(C(=O)CC2(O)C(=O)Nc3c(Cl)cc(Cl)cc32)c(=O)o1 (stereo unspecified) | > 100 µM |  | > 100 µM | > 100 µM | > 100 µM | 95.1 | > 100 | > 100 |  |  |  | > 100 µM |  |  |  |  |  |  |  | 
CC(=O)OCSc1ncnc2c1ncn2CN1CCOCC1 | > 100 µM |  | 94.8 µM | > 100 µM | > 100 µM | > 100 | > 100 | > 100 |  |  |  | > 100 µM |  |  | 76.6 µM |  |  |  |  | 
COc1cc2c(c(OC)c1OC)-c1ccc(SC)c(=O)cc1[C@@H](NC(=O)c1ccc(OC(C)=O)cc1)CC2 | > 100 µM |  | 0.0653 µM |  |  |  | 23.9 | 19.2 |  |  |  |  |  |  | 0.0539 µM |  | 0.0214 |  | 0.00773 | 
COC1/C(=C\C(=O)OC(C)(C)C)c2ccccc2N1C(C)=O (stereo unspecified) | > 100 µM |  | > 100 µM | > 100 µM | > 100 µM | > 100 | > 100 | > 100 |  |  |  | > 100 µM |  |  |  |  |  |  |  | 
N#CCc1ccc(C(C#N)/C(CCCC(=O)Nc2cccc([N+](=O)[O-])c2)=N\NC(=O)NN)cc1 (stereo unspecified) | > 100 µM |  | > 100 µM | > 100 µM | > 100 µM | > 100 | > 100 | > 100 |  |  |  | > 100 µM |  |  |  |  |  |  |  | 
N#CCN1CCCCCc2ccccc21 | > 100 µM |  | > 100 µM | > 100 µM | > 100 µM | > 100 | > 100 | > 100 |  |  |  | > 100 µM |  |  |  |  |  |  |  | 
CCOC(=O)/C(=C\c1ccc(OCc2ccccc2)c(OC)c1)C(=O)c1ccccc1 | > 10 µM |  |  | 46.8 µM | 66.4 µM |  | > 100 | > 10 |  |  |  | 42.3 µM |  |  | 30 µM |  |  |  |  | 
c1ccc(C(=NNc2nc3ccccc3o2)c2ccccn2)nc1 | > 34.5 µM and 16.5 µM |  | > 66.8 µM and 12.7 µM | 12.6 µM and 3.7 µM | > 46 µM and 33.7 µM | 24.1 |  | 0.633 | 0.108 | 0.153 | 0.0376 | > 75.4 µM and 17.9 µM | < 0.0361 | 0.0539 | 2.45 µM and 0.702 µM |  |  | 0.397 |  | 0.163
CC(=O)C1CC2(c3ccc(C)cc3)C(c3ccc(C)cc3)=C(c3ccc(C)cc3)C1(c1ccc(C)cc1)S2=O (stereo unspecified) | > 100 µM | > 100 | > 100 µM | > 100 µM | > 100 µM | > 100 |  | > 100 | > 100 | > 100 | > 100 | > 100 µM | > 100 | > 100 | > 100 µM | 85 | > 100 | > 100 |  | > 100
CC([C@H]1CCC2C3CCC4C[C@@H](NC=O)CC[C@]4(C)C3CC[C@@]21C)N(C)C (stereo partly specified) | 11.5 µM | 25.1 | 2.42 µM | 5.58 µM | 19.5 µM | 18.2 |  | 6.24 | 3.32 | 6.95 | 1.56 | 4.66 µM | 0.595 | 1.53 | 3.37 µM | 2.14 | 7.08 | 4.68 |  | 2.57
CC1(C)COCN1COC1CCCCC1 | > 100 µM | > 100 | > 100 µM | > 100 µM | > 100 µM | > 100 | 44 | > 100 |  |  |  | > 100 µM |  |  |  |  |  |  |  | 
FC(F)(F)c1cccc(COCCN2CCN(Cc3cccc(C(F)(F)F)c3)CC2)c1 | 30.9 µM | 29.6 | 44.6 µM | 37.5 µM | 29.4 µM | 26.3 | > 100 | 35.5 |  |  |  | 31.5 µM |  |  |  |  |  |  |  | 
O=C1C(Cl)=C(Oc2ccc([N+](=O)[O-])cc2)C(=O)c2c(O)ccc(O)c21 | > 100 µM | > 100 | > 83.1 µM | > 100 µM | > 100 µM | > 100 | 16.1 | > 100 |  |  |  | > 67.6 µM |  |  |  |  |  |  |  | 
Cc1nc2c(=O)[nH]c(=O)n(C)c2[nH]c1=O | > 100 µM |  | > 100 µM |  | > 100 µM | > 100 | > 100 | > 100 |  |  |  | > 100 µM |  |  | > 100 µM |  |  |  |  | 
NCCCN(CCCN)CCCNCc1c2ccccc2c(CNCCCN(CCCN)CCCN)c2ccccc12 | > 100 µM |  | 37.5 µM | 27.8 µM | 30.6 µM | 34.3 | > 100 | 27.3 |  |  |  | 28.6 µM |  |  | 42 µM |  |  |  |  | 
O=C(CNC(=O)OCc1ccccc1)Oc1ccccc1 | > 100 µM |  | > 100 µM | > 100 µM | > 42.7 µM | > 100 | > 100 | > 100 |  |  |  | > 100 µM |  |  | > 100 µM |  |  |  |  | 
